Test results from patent US10800725B2, “Arylpropionyl-triketone antibacterial agents” (priority 2010, dated 2020).
pIC50: −log10 of the molar value. Values after ≈ are worked out from the molar mass of the structure shown.

Tests used:
[1] = system: Enterococcus faecalis ATCC 19433; assay: MIC, spiral gradient endpoint assay; conditions: ATCC19433, read-out: MIC E. faecalis 19433
[2] = target: E. coli RNA polymerase σ70 holoenzyme (Escherichia coli (strain K12), UniProt P0A8T7+P0A8V2); assay: Fluorescence-detected RNA polymerase assay, E. coli RNAP; assay type: biochemical
Protocol: (§1) Fluorescence-detected RNA polymerase assays with E. coli RNA polymerase were performed by a modification of the procedure of Kuhlman et al., 2004 [Kuhlman, P., Duff, H. & Galant, A. (2004) A fluorescence-based assay for multisubunit DNA-dependent RNA polymerases. Anal. Biochem. 324, 183-190]. Reaction mixtures contained (20 μl): 0-100 nM test compound, 75 nM E. coli RNA polymerase σ^70 holoenzyme, 20 nM 384 bp DNA fragment containing the bacteriophage T4 N25 promoter, 100 μM ATP, 100 μM GTP, 100 μM UTP, 100 μM CTP, 50 mM Tris-HCl, pH 8.0, 100 mM KCl, 10 mM MgCl2, 1 mM DTT, 10 μg/ml bovine serum albumin, and 5.5% glycerol. Reaction components other than DNA and NTPs were pre-incubated for 10 min at 37° C. Reactions were carried out by addition of DNA and incubation for 5 min at 37° C., followed by addition of NTPs and incubation for 60 min at 37° C. DNA was removed by addition of 1 μl 5 mM CaCl2 and 2 U DNaseI (Ambion, Inc.), followed by incubation for 90 min at 37° C. RNA was quantified by addition of 100 μl RiboGreen RNA Quantitation Reagent (Invitrogen, Inc.; 1:500 dilution in Tris-HCl, pH 8.0, 1 mM EDTA), followed by incubation for 10 min at 25° C., followed by measurement of fluorescence intensity [excitation wavelength=485 nm and emission wavelength=535 nm; QuantaMaster QM1 spectrofluorometer (PTI, Inc.)]. IC50 is defined as the concentration of inhibitor resulting in 50% inhibition of RNA polymerase activity.

[3] = system: Mycobacterium tuberculosis H37Rv; assay: MIC, microplate Alamar Blue assay; conditions: read-out: MIC M. tuberculosis H37Rv
[4] = target: M. tuberculosis RNA polymerase core enzyme + σA (Mycobacterium tuberculosis (strain ATCC 25618 / H37Rv), UniProt P9WGY7+P9WGY9); assay: Fluorescence-detected RNA polymerase assay, M. tuberculosis RNAP; assay type: biochemical
Protocol: as §1
(§2) Fluorescence-detected RNA polymerase assays with M. tuberculosis RNA polymerase were performed as in Example 21.1, using reaction mixtures containing (20 μl): 0-100 nM test compound, 75 nM M. tuberculosis RNA polymerase core enzyme, 300 nM M. tuberculosis σ^A, 20 nM 384 bp DNA fragment containing the bacteriophage T4 N25 promoter, 100 μM ATP, 100 μM GTP, 100 μM UTP, 100 μM CTP, 40 mM Tris-HCl, pH 8.0, 80 mM NaCl, 5 mM MgCl2, 2.5 mM DTT, and 12.7% glycerol. IC50 is defined as the concentration of inhibitor resulting in 50% inhibition of RNA polymerase activity.

[5] = target: S. aureus RNA polymerase core enzyme + σA (Staphylococcus aureus (strain NCTC 8325 / PS 47), UniProt P47768+Q2G0N5); assay: Fluorescence-detected RNA polymerase assay, S. aureus RNAP; assay type: biochemical
Protocol: as §1
as §2, with “S. aureus” for “M. tuberculosis”

[6] = system: Staphylococcus aureus ATCC 12600; assay: MIC, spiral gradient endpoint assay; conditions: ATCC12600, read-out: MIC S. aureus 12600
[7] = system: Escherichia coli D21f2tolC; assay: MIC, spiral gradient endpoint assay; conditions: read-out: MIC E. coli D21f2tolC

SMILES | MIC [1] [µg/mL] | pIC50 [2] | MIC [3] [µg/mL] | pIC50 [4] | pIC50 [5] | MIC [6] [µg/mL] | MIC [7] [µg/mL]
Cc1ccc(CCC(=O)C2=C(O)C(CCC(C)C)=C(O)C(CCC(C)C)(CCC(C)C)C2=O)cc1 [Compound 9, 3,5-dihydroxy-2-(3-(4-methylphenyl)propanoyl)-4,6,6-triisopentylcyclohexa-2,4-dienone] | 1 (≈ 2.07 µM) | 6.66 | 25 (≈ 51.8 µM) | 6.54 | 6.08 | 0.5 (≈ 1.04 µM) | 4.4 (≈ 9.12 µM)
Cc1ccccc1CCC(=O)C1=C(O)C(CCC(C)C)=C(O)C(CCC(C)C)(CCC(C)C)C1=O [Compound 7, 3,5-dihydroxy-2-(3-(2-methylphenyl)propanoyl)-4,6,6-triisopentylcyclohexa-2,4-dienone] | 1 (≈ 2.07 µM) | 6.68 | 50 (≈ 104 µM) | 6.77 | 5.96 | 0.5 (≈ 1.04 µM) | 7 (≈ 14.5 µM)
CCCC1=C(O)C(CCC)(CCC)C(=O)C(C(=O)CCc2ccc(Cl)cc2)=C1O [Compound 13, 3,5-dihydroxy-2-(3-(4-chlorophenyl)propanoyl)-4,6,6-tripropylcyclohexa-2,4-dienone] | 2.2 (≈ 5.25 µM) | 5.11 | > 50 | 5.85 | 5.28 | 0.7 (≈ 1.67 µM) | 0.8 (≈ 1.91 µM)
CC(C)CCC1=C(O)C(CCC(C)C)(CCC(C)C)C(=O)C(C(=O)CCc2ccc(F)cc2)=C1O [Compound 10, 3,5-dihydroxy-2-(3-(4-fluorophenyl)propanoyl)-4,6,6-triisopentylcyclohexa-2,4-dienone] | 2.7 (≈ 5.55 µM) | 6.28 | 50 (≈ 103 µM) | 6.19 | 5.66 | 0.5 (≈ 1.03 µM) | 2.7 (≈ 5.55 µM)
Cc1cccc(CCC(=O)C2=C(O)C(CCC(C)C)=C(O)C(CCC(C)C)(CCC(C)C)C2=O)c1 [Compound 8, 3,5-dihydroxy-2-(3-(3-methylphenyl)propanoyl)-4,6,6-triisopentylcyclohexa-2,4-dienone] | 1 (≈ 2.07 µM) | 6.38 | > 50 | 6.22 | 5.66 | 4 (≈ 8.29 µM) | 12 (≈ 24.9 µM)
CCCCC1=C(O)C(CCCC)(CCCC)C(=O)C(C(=O)CCc2ccc(Cl)cc2)=C1O [Compound 14, 3,5-dihydroxy-2-(3-(4-chlorophenyl)propanoyl)-4,6,6-tributylcyclohexa-2,4-dienone] | 1.3 (≈ 2.82 µM) | 5.96 | > 50 | 6.17 | 5.51 | 0.5 (≈ 1.08 µM) | 0.6 (≈ 1.3 µM)
CC(C)CCC1=C(O)C(CCC(C)C)(CCC(C)C)C(=O)C(C(=O)CCc2ccc(Br)cc2)=C1O [Compound 11, 3,5-dihydroxy-2-(3-(4-bromophenyl)propanoyl)-4,6,6-triisopentylcyclohexa-2,4-dienone] | 2.6 (≈ 4.75 µM) | 6.05 | 50 (≈ 91.3 µM) | 6.11 | 5.48 | 0.8 (≈ 1.46 µM) | 3.3 (≈ 6.03 µM)
CC(C)CCC1=C(O)C(CCC(C)C)(CCC(C)C)C(=O)C(C(=O)CCc2ccc(C(F)(F)F)cc2)=C1O [Compound 12, 3,5-dihydroxy-2-(3-(4-trifluoromethylphenyl)propanoyl)-4,6,6-triisopentylcyclohexa-2,4-dienone] | 0.5 (≈ 0.932 µM) | 6.92 | 25 (≈ 46.6 µM) | 6.66 | 6.34 | 0.6 (≈ 1.12 µM) | 4.3 (≈ 8.01 µM)
